What was measured:
[1] = system: Russian thistle; test: Test D postemergence; format: in vivo, Salsola kali
Text: (§1) Seeds of plant species selected from bluegrass (annual bluegrass, Poa annua), blackgrass (Alopecurus myosuroides), canarygrass (littleseed canarygrass, Phalaris minor), chickweed (common chickweed, Stellaria media), galium (catchweed bedstraw, Galium aparine), bromegrass, downy (downy bromegrass, Bromus tectorum), field poppy (Papaver rhoeas), field violet (Viola arvensis), green foxtail (Setaria viridis), deadnettle (henbit deadnettle, Lamium amplexicaule), Italian ryegrass (Lolium multiflorum), kochia (Kochia scoparia), lambsquarters (Chenopodium album), oilseed rape (Brassica napus), pigweed (Amaranthus retroflexus), chamomile (scentless chamomile, Matricaria inodora), Russian thistle (Salsola kali), speedwell (bird's-eye speedwell, Veronica persica), spring barley (Hordeum vulgare), spring wheat (Triticum aestivum), wild buckwheat (Polygonum convolvulus), wild mustard (Sinapis arvensis), wild oat (Avena fatua), wild radish (Raphanus raphanistrum), windgrass (Apera spica-venti), winter barley (Hordeum vulgare), and winter wheat (Triticum aestivum) were planted into a silt loam soil and treated preemergence with test chemicals formulated in a non-phytotoxic solvent mixture which included a surfactant.
(§2) At the same time, these species were planted in pots containing Redi-Earth® planting medium (Scotts Company, 14111 Scottslawn Road, Marysville, Ohio 43041) comprising spaghnum peat moss, vermiculite, wetting agent and starter nutrients and treated with postemergence applications of the test chemicals formulated in the same manner. Plants ranged in height from 2 to 18 cm (1- to 4-leaf stage). Treated plants and controls were maintained in a controlled growth environment for 7 to 21 days after which time all species were compared to controls and visually evaluated. Plant response ratings, summarized in Table D, are based on a scale of 0 to 100 where 0 is no effect and 100 is complete control. A dash (-) response means no test result.

[2] = system: kochia; test: Test D preemergence; format: in vivo, Kochia scoparia; conditions: Bassia scoparia, pre-emergence; for pest or weed control at 16 g/ha: 16 g ai/ha, scale 0 (no effect) to 100 (complete control), read-out: Plant response rating, Kochia; for pest or weed control at 31 g/ha: 31 g ai/ha; for pest or weed control at 31 g/ha / pest or weed control at 62 g/ha / pest or weed control at 125 g/ha: scale 0-100, read-out: Plant response rating, Kochia; for pest or weed control at 62 g/ha: 62 g ai/ha; for pest or weed control at 125 g/ha: 125 g ai/ha
Procedure, shortened: (§3)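 Species were sown in silt loam for preemergence treatment, or grown in peat-based medium to the 1–4-leaf stage (2–18 cm) for postemergence sprays. Test chemicals were formulated in a non-phytotoxic solvent mixture with surfactant. After 7–21 days in a controlled environment, plants were rated visually against controls on a 0 (no effect) to 100 (complete control) scale.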

[3] = system: wild oat; test: Test D postemergence; format: in vivo, Avena fatua; conditions: Avena fatua, post-emergence; for pest or weed control at 16 g/ha: 16 g ai/ha, scale 0-100, read-out: Plant response rating, Oat, Wild; for pest or weed control at 31 g/ha: 31 g ai/ha; for pest or weed control at 31 g/ha / pest or weed control at 62 g/ha / pest or weed control at 125 g/ha: scale 0 to 100 (0 no effect, 100 complete control), read-out: Plant response rating, Oat, Wild; for pest or weed control at 62 g/ha: 62 g ai/ha; for pest or weed control at 125 g/ha: 125 g ai/ha
Text: as §1, §2

[4] = system: Russian thistle; test: Test D preemergence; format: in vivo, Salsola kali; set-up: key: 0 = no effect, 100 = complete control
Text: as §1, §2

[5] = system: bluegrass; test: Test D postemergence; format: in vivo, Poa annua; conditions: Poa annua, post-emergence, Postemergence, scale 0 to 100 (0 no effect, 100 complete control), read-out: Plant response rating, Bluegrass; for pest or weed control at 16 g/ha: 16 g ai/ha; for pest or weed control at 31 g/ha: 31 g ai/ha; for pest or weed control at 62 g/ha: 62 g ai/ha; for pest or weed control at 125 g/ha: 125 g ai/ha
Procedure, shortened: as §3

[6] = system: wild radish; test: Test D postemergence; format: in vivo, Raphanus raphanistrum; conditions: Raphanus raphanistrum, post-emergence; for pest or weed control at 16 g/ha: 16 g ai/ha, scale 0-100, read-out: Plant response rating, Radish, Wild; for pest or weed control at 31 g/ha: 31 g ai/ha; for pest or weed control at 31 g/ha / pest or weed control at 62 g/ha / pest or weed control at 125 g/ha: scale 0 to 100 (0 no effect, 100 complete control), read-out: Plant response rating, Radish, Wild; for pest or weed control at 62 g/ha: 62 g ai/ha; for pest or weed control at 125 g/ha: 125 g ai/ha
Text: as §1, §2

[7] = system: bluegrass; test: Test D preemergence; format: in vivo, Poa annua; conditions: Poa annua, pre-emergence; for pest or weed control at 16 g/ha: 16 g ai/ha, scale 0 (no effect) to 100 (complete control), read-out: Plant response rating, Bluegrass; for pest or weed control at 31 g/ha: 31 g ai/ha; for pest or weed control at 31 g/ha / pest or weed control at 62 g/ha / pest or weed control at 125 g/ha: scale 0-100, read-out: Plant response rating, Bluegrass; for pest or weed control at 62 g/ha: 62 g ai/ha; for pest or weed control at 125 g/ha: 125 g ai/ha
Procedure, shortened: as §3

[8] = system: blackgrass; test: Test D postemergence; format: in vivo, Alopecurus myosuroides; conditions: Alopecurus myosuroides, post-emergence, Postemergence, scale 0 to 100 (0 no effect, 100 complete control), read-out: Plant response rating, Blackgrass; for pest or weed control at 62 g/ha: 62 g ai/ha; for pest or weed control at 16 g/ha: 16 g ai/ha; for pest or weed control at 31 g/ha: 31 g ai/ha; for pest or weed control at 125 g/ha: 125 g ai/ha
Text: as §1, §2

[9] = system: bromegrass, downy; test: Test D postemergence; format: in vivo, Bromus tectorum; conditions: Bromus tectorum, post-emergence, Postemergence, scale 0 to 100 (0 no effect, 100 complete control), read-out: Plant response rating, Bromegrass, Downy; for pest or weed control at 16 g/ha: 16 g ai/ha; for pest or weed control at 31 g/ha: 31 g ai/ha; for pest or weed control at 62 g/ha: 62 g ai/ha; for pest or weed control at 125 g/ha: 125 g ai/ha
Text: as §1, §2

[10] = system: large (Lg) crabgrass; test: Test F preemergence; format: in vivo, Digitaria sanguinalis; conditions: 21 days, scale 0 to 100
Procedure, shortened: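 Preemergence application to seeded loam–sand soil, with compound delivered in a non-phytotoxic solvent plus surfactant; weed control assessed visually at 21 days (0–100 scale).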

[11] = system: morningglory (pitted morningglory); test: Test F preemergence; format: in vivo, Ipomoea lacunosa; conditions: 21 days, scale 0 to 100
Text: Seeds of plant species selected from bermudagrass (Cynodon dactylon), surinam grass (Brachiaria decumbens), large (Lg) crabgrass (Digitaria sanguinalis), crabgrass, naked (naked crabgrass, Digitaria nuda), foxtail, green (green foxtail, Setaria viridis), johnsongrass (Sorghum halepense), kochia (Kochia scoparia), morningglory (pitted morningglory, Ipomoea lacunosa), nutsedge, purple (purple nutsedge, Cyperus rotundus), ragweed (common ragweed, Ambrosia elatior), mustard, black (black mustard, Brassica nigra), guineagrass (Panicum maximum), dallisgrass (Paspalum dilatatum), barnyardgrass (Echinochloa crus-galli), sandbur (southern sandbur, Cenchrus echinatus), sowthistle (common sowthistle, Sonchus oleraceous), Italian ryegrass (Lolium multiflorum), signalgrass (broadleaf signalgrass, Brachiaria platyphylla), dayflower (Virginia (VA) dayflower, Commelina virginica), bluegrass (annual bluegrass, Poa annua), quackgrass (Elytrigia repens), mallow (common mallow, Malva sylvestris), buckwheat, wild (wild buckwheat, Polygonum convolvulus), leafy spurge (Euphorbia esula), chickweed (common chickweed, Stellaria media), wild poinsettia (Euphorbia heterophylla), and pigweed (Amaranthus retroflexus) were planted into a blend of loam soil and sand and treated preemergence with test chemicals formulated in a non-phytotoxic solvent mixture which included a surfactant.
Treated plants and controls were maintained in a greenhouse for 21 days, after which time all species were compared to controls and visually evaluated. Plant response ratings, summarized in Table F, are based on a scale of 0 to 100 where 0 is no effect and 100 is complete control. A dash (-) response means no test result.

SMILES | pest or weed control at 16 g/ha [2] [%] | pest or weed control at 31 g/ha [2] [%] | pest or weed control at 62 g/ha [2] [%] | pest or weed control at 125 g/ha [2] [%] | pest or weed control at 16 g/ha [3] [%] | pest or weed control at 31 g/ha [3] [%] | pest or weed control at 62 g/ha [3] [%] | pest or weed control at 125 g/ha [3] [%] | pest or weed control at 16 g/ha [5] [%] | pest or weed control at 31 g/ha [5] [%] | pest or weed control at 62 g/ha [5] [%] | pest or weed control at 125 g/ha [5] [%] | pest or weed control at 16 g/ha [6] [%] | pest or weed control at 31 g/ha [6] [%] | pest or weed control at 62 g/ha [6] [%] | pest or weed control at 125 g/ha [6] [%] | pest or weed control at 16 g/ha [7] [%] | pest or weed control at 31 g/ha [7] [%] | pest or weed control at 62 g/ha [7] [%] | pest or weed control at 125 g/ha [7] [%] | other results
Fc1cccc(Oc2ncc(Cl)cn2)c1-n1cc(C(F)F)nn1 [Compound 141, 5-chloro-2-[2-[4-(difluoromethyl)-1H-1,2,3-triazol-1-yl]-3-fluorophenoxy]pyrimidine] | 85 | 100 | 100 | 100 | 5 | 10 | 15 | 30 | 5 | 20 | 35 | 40 | 90 | 95 | 100 | 100 | 15 | 35 | 90 | 90 | Plant response rating, Russian Thistle ([1]; 16 g ai/ha, scale 0-100): 40; Plant response rating, Russian Thistle ([1]; 31 g ai/ha, scale 0 to 100 (0 no effect, 100 complete control)): 40; Plant response rating, Russian Thistle ([1]; 62 g ai/ha, scale 0 to 100 (0 no effect, 100 complete control)): 85; Plant response rating, Russian Thistle ([1]; 125 g ai/ha, scale 0 to 100 (0 no effect, 100 complete control)): 95; Plant response rating, Russian Thistle ([4]; 16 g ai/ha, scale 0 (no effect) to 100 (complete control)): 15; Plant response rating, Russian Thistle ([4]; 31 g ai/ha, scale 0 (no effect) to 100 (complete control)): 50; Plant response rating, Russian Thistle ([4]; 62 g ai/ha, scale 0-100): 75; Plant response rating, Russian Thistle ([4]; 125 g ai/ha, scale 0-100): 100; pest or weed control at 62 g/ha [8]: 35%; pest or weed control at 16 g/ha [8]: 10%; pest or weed control at 31 g/ha [8]: 25%; pest or weed control at 125 g/ha [8]: 55%; pest or weed control at 16 g/ha [9]: 15%; pest or weed control at 31 g/ha [9]: 20%; pest or weed control at 62 g/ha [9]: 30%; pest or weed control at 125 g/ha [9]: 45%
N#Cc1cccc(Oc2ncc(Cl)cn2)c1-n1cc(OCC(F)(F)F)cn1 [Compound 274, 3-[(5-chloro-2-pyrimidinyl)oxy]-2-[4-(2,2,2-trifluoroethoxy)-1H-pyrazol-1-yl]benzonitrile] | 0 | 70 | 65 | 100 | 20 | 30 | 35 | 40 | 20 | 25 | 30 | 30 | 70 | 70 | 70 | 90 | 0 | 5 | 30 | 70 | Plant response rating, Crabgrass, Large ([10]; 16 g ai/ha): 100; Plant response rating, Crabgrass, Large ([10]; 31 g ai/ha): 100; Plant response rating, Crabgrass, Large ([10]; 62 g ai/ha): 100; Plant response rating, Crabgrass, Large ([10]; 125 g ai/ha): 100; Plant response rating, Crabgrass, Large ([10]; 250 g ai/ha): 100; pest or weed control at 62 g/ha [8]: 20%; pest or weed control at 16 g/ha [8]: 10%; pest or weed control at 31 g/ha [8]: 15%; pest or weed control at 125 g/ha [8]: 30%; Plant response rating, Morningglory ([11]; 16 g ai/ha): 35; Plant response rating, Morningglory ([11]; 31 g ai/ha): 50; Plant response rating, Morningglory ([11]; 62 g ai/ha): 65; Plant response rating, Morningglory ([11]; 125 g ai/ha): 98; Plant response rating, Morningglory ([11]; 250 g ai/ha): 100; pest or weed control at 16 g/ha [9]: 20%; pest or weed control at 31 g/ha [9]: 25%; pest or weed control at 62 g/ha [9]: 35%; pest or weed control at 125 g/ha [9]: 40%

From patent US9695155B2, “Herbicidal substituted pyrimidinyloxy benzene compounds” (E. I. DU PONT DE NEMOURS AND COMPANY, priority 2013, dated 2017)
